Test results published in patent EP2970215B1, “PYRROLIDINE DERIVATIVES, PHARMACEUTICAL COMPOSITIONS CONTAINING THEM, AND THEIR USE IN THERAPY” (AbbVie Deutschland GmbH & Co. KG, priority 2013, dated 2014).

Target: T1, human GlyT1c transporter (Homo sapiens, UniProt P48067)
T1 construct: expressed in transfected cells; host or cells: CHO cells (recombinant; line hGlyT1c_5_CHO is named for the uptake assay)
T1 sequence (P48067 1-706): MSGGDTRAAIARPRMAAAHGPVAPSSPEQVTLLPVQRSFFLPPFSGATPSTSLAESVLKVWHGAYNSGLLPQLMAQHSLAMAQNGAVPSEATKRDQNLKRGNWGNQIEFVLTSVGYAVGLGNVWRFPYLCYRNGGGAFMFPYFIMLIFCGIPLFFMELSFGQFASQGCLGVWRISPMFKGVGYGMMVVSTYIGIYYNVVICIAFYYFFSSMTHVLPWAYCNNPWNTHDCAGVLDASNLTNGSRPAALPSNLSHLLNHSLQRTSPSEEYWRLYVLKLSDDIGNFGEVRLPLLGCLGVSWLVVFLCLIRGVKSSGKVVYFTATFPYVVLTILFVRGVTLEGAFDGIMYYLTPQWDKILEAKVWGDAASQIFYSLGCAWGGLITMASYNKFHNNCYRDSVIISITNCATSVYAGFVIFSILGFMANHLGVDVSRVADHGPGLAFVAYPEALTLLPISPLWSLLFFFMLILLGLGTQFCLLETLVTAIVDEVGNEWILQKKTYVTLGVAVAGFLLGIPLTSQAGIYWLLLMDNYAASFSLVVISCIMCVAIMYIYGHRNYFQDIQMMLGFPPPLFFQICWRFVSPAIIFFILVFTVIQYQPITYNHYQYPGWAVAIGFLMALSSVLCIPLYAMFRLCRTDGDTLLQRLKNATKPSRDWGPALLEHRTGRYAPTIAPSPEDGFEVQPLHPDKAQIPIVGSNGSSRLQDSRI
Assay: Radioligand binding assay using recombinant CHO cell membranes expressing human GlyT1
Conditions: radioligand binding to human GlyT1c transporter-expressing membranes
Text: 2. Radioligand binding assays using recombinant CHO cell membranes expressing human GlyT1: […]

First: O=C(N[C@@H]1CN(S(=O)(=O)c2cn[nH]c2)C[C@H]1c1ccccc1)c1cccc(C(F)(F)F)c1Cl (relative stereo) [Example 46, 2-chloro-N-[trans-4-phenyl-1-(1H-pyrazol-4-ylsulfonyl)pyrrolidin-3-yl]-3-(trifluoromethyl)benzamide]
Second: Cn1cnc(S(=O)(=O)N2C[C@@H](Nc3cc(C(F)(F)F)ccc3F)[C@H](c3ccccc3)C2)c1 (relative stereo) [Example 224, trans-N-[2-fluoro-5-(trifluoromethyl)phenyl]-1-[(1-methyl-1H-imidazol-4-yl)sulfonyl]-4-phenylpyrrolidin-3-amine]
The Ki of the first is higher: no less than 10 µM for the first, no more than 1 µM for the second.

`CC1CCN(S(=O)(=O)N2CC(Nc3ccc(F)c(F)c3)C(c3ccccc3)C2)CC1` (stereo not shown) [Example 493, N-(3,4-difluorophenyl)-1-[(4-methylpiperidin-1-yl)sulfonyl]-4-phenylpyrrolidin-3-amine] and `Cn1cnc(S(=O)(=O)N2C[C@@H](Nc3cc(F)c(F)c(Cl)c3)[C@H](c3ccccc3)C2)c1` (relative stereo) [Example 219, trans-N-(3-chloro-4,5-difluorophenyl)-1-[(1-methyl-1H-imidazol-4-yl)sulfonyl]-4-phenylpyrrolidin-3-amine] cannot be ordered by Ki: no more than 10 µM for the first, no more than 10 µM for the second.

`Cn1cnc(S(=O)(=O)N2C[C@@H](C(=O)NCc3cccc(C(F)(F)F)c3)[C@H](c3ccc(F)cc3)C2)c1` (relative stereo) [Example 632, Trans-4-(4-fluorophenyl)-1-[(1-methyl-1H-imidazol-4-yl)sulfonyl]-N-[3-(trifluoromethyl)benzyl]pyrrolidine-3-carboxamide] and `Cn1cnc(S(=O)(=O)N2C[C@@H](Nc3ccc(C(F)(F)F)cc3)[C@H](c3cccc(F)c3)C2)c1` (relative stereo) [Example 190, trans-4-(3-fluorophenyl)-1-[(1-methyl-1H-imidazol-4-yl)sulfonyl] -N-[4-(trifluoromethyl)phenyl]pyrrolidin-3-amine] cannot be ordered by Ki: no more than 1 µM for the first, no more than 1 µM for the second.

`Cn1cnc(S(=O)(=O)N2C[C@H](NCc3cncc(-c4ccc(F)cc4)c3)[C@@H](c3ccccc3)C2)c1` [Example 445, (3R,4S)-N-{[5-(4-fluorophenyl)pyridin-3-yl]methyl}-1-[(1-methyl-1H-imidazol-4-yl)sulfonyl]-4-phenylpyrrolidin-3-amine] and `Cn1cnc(S(=O)(=O)N2C[C@@H](Nc3ccccc3Cl)[C@H](c3ccc(F)cc3)C2)c1` (relative stereo) [Example 93, trans-N-(2-chlorophenyl)-4-(4-fluorophenyl)-1-[(1-methyl-1H-imidazol-4-yl)sulfonyl]pyrrolidin-3-amine] cannot be ordered by Ki: no more than 1 µM for the first, no more than 1 µM for the second.

`Cn1cnc(S(=O)(=O)N2C[C@@H](COc3ccc(F)c(C(F)(F)F)c3)[C@H](c3ccc(F)cc3)C2)c1` (relative stereo) [Example 295, 4-{[trans-3-(4-fluorophenyl)-4-{[4-fluoro-3-(trifluoromethyl)phenoxy]methyl}pyrrolidin-1-yl]sulfonyl}-1-methyl-1H-imidazole] and `Cc1cc(N[C@H]2CN(S(=O)(=O)c3cn(C)cn3)C[C@@H]2c2ccc(F)cc2)ccc1F` [Example 747, (3R,4S)-N-(4-fluoro-3-methylphenyl)-4-(4-fluorophenyl)-1-[(1-methyl-1H-imidazol-4-yl)sulfonyl]pyrrolidin-3-amine] cannot be ordered by Ki: no more than 0.1 µM for the first, no more than 0.01 µM for the second.

`Cc1cccc(-c2cc(N[C@H]3CN(S(=O)(=O)c4cn(C)cn4)C[C@@H]3c3ccc(F)cc3)ncn2)c1` [Example 724, N-{(3R,4S)-4-(4-fluorophenyl)-1-[(1-methyl-1H-imidazol-4-yl)sulfonyl]pyrrolidin-3-yl}-6-(3-methylphenyl)pyrimidin-4-amine] and `Cn1cnc(S(=O)(=O)N2C[C@H](Nc3cc(-c4cccc(Cl)c4)ncn3)[C@@H](c3ccc(F)cc3)C2)c1` [Example 729, 6-(3-chlorophenyl)-N-{(3R,4S)-4-(4-fluorophenyl)-1-[(1-methyl-1H-imidazol-4-yl)sulfonyl]pyrrolidin-3-yl}pyrimidin-4-amine] cannot be ordered by Ki: no more than 0.1 µM for the first, no more than 0.01 µM for the second.

`Cn1cnc(S(=O)(=O)N2C[C@H](Nc3ccc4c(c3)CCCO4)[C@@H](c3ccccc3)C2)c1` [Example 658, (3R,4S)-N-(3,4-dihydro-2H-chromen-6-yl)-1-[(1-methyl-1H-imidazol-4-yl)sulfonyl]-4-phenylpyrrolidin-3-amine] and `Cc1ncsc1CN[C@H]1CN(S(=O)(=O)c2cn(C)cn2)C[C@@H]1c1ccccc1` [Example 434, (3R,4S)-1-[(1-methyl-1H-imidazol-4-yl)sulfonyl]-N-[(4-methyl-1,3-thiazol-5-yl)methyl]-4-phenylpyrrolidin-3-amine] cannot be ordered by Ki: no more than 1 µM for the first, no more than 10 µM for the second.

`CCC(CN[C@H]1CN(S(=O)(=O)c2cn(C)cn2)C[C@@H]1c1ccccc1)C(C)C` (stereo partly drawn) [Example 470, (3R,4S)-N-(2-ethyl-3-methylbutyl)-1-[(1-methyl-1H-imidazol-4-yl)sulfonyl]-4-phenylpyrrolidin-3-amine] and `CCOCCN[C@H]1CN(S(=O)(=O)c2cn(C)cn2)C[C@@H]1c1ccccc1` [Example 608, (3R,4S)-N-(2-ethoxyethyl)-1-[(1-methyl-1H-imidazol-4-yl)sulfonyl]-4-phenylpyrrolidin-3-amine] cannot be ordered by Ki: no more than 10 µM for the first, no more than 10 µM for the second.

`Cn1cnc(S(=O)(=O)N2C[C@@H](Nc3cccc(Cl)c3)[C@H](C3CC3)C2)c1` (relative stereo) [Example 338, Trans-N-(3-chlorophenyl)-4-cyclopropyl-1-[(1-methyl-1H-imidazol-4-yl)sulfonyl]pyrrolidin-3-amine] and `C=CCO[C@@H]1CN(S(=O)(=O)c2cn(C)cn2)C[C@H]1Nc1cccc(Cl)c1` (relative stereo) [Example 402, Trans-N-(3-chlorophenyl)-1-[(1-methyl-1H-imidazol-4-yl)sulfonyl]-4-(prop-2-en-1-yloxy)pyrrolidin-3-amine] cannot be ordered by Ki: no more than 1 µM for the first, no more than 10 µM for the second.

`Cn1cnc(S(=O)(=O)N2C[C@@H](C(=O)c3cc(F)cc(Cl)c3)[C@H](c3ccc(F)cc3)C2)c1` (relative stereo) [Example 361, (3-Chloro-5-fluorophenyl){trans-4-(4-fluorophenyl)-1-[(1-methyl-1H-imidazol-4-yl)sulfonyl]pyrrolidin-3-yl} methanone] and `CC(C)OCCNC(=O)[C@@H]1CN(S(=O)(=O)c2cn(C)cn2)C[C@H]1c1ccc(F)cc1` [Example 587, (3S,4R)-4-(4-fluorophenyl)-1-[(1-methyl-1H-imidazol-4-yl)sulfonyl]-N-[2-(propan-2-yloxy)ethyl]pyrrolidine-3-carboxamide] cannot be ordered by Ki: no more than 1 µM for the first, no more than 10 µM for the second.

`Cn1cnc(S(=O)(=O)N2C[C@@H](Nc3cccc(C(F)(F)F)c3)[C@H](C3CCCCO3)C2)c1` (relative stereo) [Example 681, Trans-1-[(1-methyl-1H-imidazol-4-yl)sulfonyl]-4-(tetrahydro-2H-pyran-2-yl)-N-[3-(trifluoromethyl)phenyl]pyrrolidin-3-amine] and `Cn1cnc(S(=O)(=O)N2C[C@H](Nc3cc(OCC(F)(F)F)c(F)cn3)[C@@H](c3ccccc3)C2)c1` [Example 803, 5-fluoro-N-{(3R,4S)-1-[(1-methyl-1H-imidazol-4-yl)sulfonyl]-4-phenylpyrrolidin-3-yl}-4-(2,2,2-trifluoroethoxy)pyridin-2-amine] cannot be ordered by Ki: no more than 0.01 µM for the first, no more than 0.01 µM for the second.

`Cn1cnc(S(=O)(=O)N2C[C@@H](CNCC3CC3)[C@H](c3ccc(F)cc3)C2)c1` [Example 607, 1-cyclopropyl-N-({(3R,4R)-4-(4-fluorophenyl)-1-[(1-methyl-1H-imidazol-4-yl)sulfonyl]pyrrolidin-3-yl}methyl)methanamine] and `Cn1cnc(S(=O)(=O)N2C[C@@H](CNc3cccc(CN)c3)[C@H](c3ccc(F)cc3)C2)c1` (relative stereo) [Example 365, 3-(Aminomethyl)-N-({Trans-4-(4-fluorophenyl)-1-[(1-methyl-1H-imidazol-4-yl)sulfonyl]pyrrolidin-3-yl}methyl)aniline] cannot be ordered by Ki: no more than 10 µM for the first, no more than 10 µM for the second.

`CCCCC(F)(F)C(=O)N[C@H]1CN(S(=O)(=O)c2cn(C)cn2)C[C@@H]1c1ccc(F)cc1` [Example 708, 2,2-difluoro-N-{(3R,4S)-4-(4-fluorophenyl)-1-[(1-methyl-1H-imidazol-4-yl)sulfonyl]pyrrolidin-3-yl}hexanamide] and `CCCCOc1cc(N[C@H]2CN(S(=O)(=O)c3cn(C)cn3)C[C@@H]2c2ccc(F)cc2)ncn1` [Example 717, 6-butoxy-N-{(3R,4S)-4-(4-fluorophenyl)-1-[(1-methyl-1H-imidazol-4-yl)sulfonyl]pyrrolidin-3-yl}pyrimidin-4-amine] cannot be ordered by Ki: no more than 10 µM for the first, no more than 0.1 µM for the second.

For `COCCCN[C@H]1CN(S(=O)(=O)c2cn(C)cn2)C[C@@H]1c1ccccc1` [Example 588, (3R,4S)-N-(3-methoxypropyl)-1-[(1-methyl-1H-imidazol-4-yl)sulfonyl]-4-phenylpyrrolidin-3-amine], the Ki was no more than 10 µM.

Same assay, conditions: radioligand binding, recombinant CHO cell membranes expressing human GlyT1c

`Cn1cnc(S(=O)(=O)N2C[C@@H](NCc3ccc(C(F)(F)F)cc3Cl)[C@H](C3CCCO3)C2)c1` (relative stereo) [Example 822, Trans-N-[2-chloro-4-(trifluoromethyl)benzyl]-1-[(1-methyl-1H-imidazol-4-yl)sulfonyl]-4-(tetrahydrofuran-2-yl)pyrrolidin-3-amine] showed a Ki of no more than 1 µM.
